Experimental data reported in US8048862B2, “Macrocyclic inhibitors of hepatitis C virus replication” (priority 2008, dated 2011).

Key:
hepatitis C replicon = hepatitis C replicon EC50; type: cell-based; conditions: Hepatitis C virus; Table 2; hepatitis C replicon; read-out: EC50
Description: NS3-NS4 inhibition activity can be determined using known assay methods.

NS3/NS4 complexes = NS3/NS4 complexes (Hepatitis C virus genotype 1a, UniProt P27958); test: NS3/NS4 inhibition activity (IC50); type: biochemical; conditions: Table 2, read-out: IC50
NS3/NS4 complexes, sequence (P27958 1027-1657): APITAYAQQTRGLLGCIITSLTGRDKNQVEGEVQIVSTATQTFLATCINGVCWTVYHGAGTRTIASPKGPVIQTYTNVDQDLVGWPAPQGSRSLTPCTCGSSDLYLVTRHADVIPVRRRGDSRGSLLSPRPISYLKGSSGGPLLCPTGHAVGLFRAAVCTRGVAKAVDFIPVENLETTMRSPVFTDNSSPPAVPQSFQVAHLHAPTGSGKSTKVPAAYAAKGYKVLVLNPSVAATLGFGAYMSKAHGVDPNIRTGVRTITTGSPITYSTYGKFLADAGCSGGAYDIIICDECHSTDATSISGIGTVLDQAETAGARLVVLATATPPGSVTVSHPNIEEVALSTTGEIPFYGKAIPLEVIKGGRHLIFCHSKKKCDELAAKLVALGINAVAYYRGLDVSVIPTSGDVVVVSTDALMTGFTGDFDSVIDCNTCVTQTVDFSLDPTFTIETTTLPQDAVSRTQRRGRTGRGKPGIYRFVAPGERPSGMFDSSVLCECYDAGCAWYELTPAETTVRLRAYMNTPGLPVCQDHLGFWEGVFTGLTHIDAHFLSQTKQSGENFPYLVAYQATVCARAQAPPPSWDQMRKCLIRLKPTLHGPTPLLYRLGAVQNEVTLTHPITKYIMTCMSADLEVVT
NS3/NS4 complexes, sequence (P27958 1658-1711): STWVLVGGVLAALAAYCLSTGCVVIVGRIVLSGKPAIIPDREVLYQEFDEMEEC
Description: NS3-NS4 inhibition activity can be determined using known assay methods. For example, NS3/NS4 complexes may be formed and inhibitory concentrations of test compounds determined as described in U.S. Patent Application Publication Number 2007/0054842 paragraph numbers 1497-1509, which is incorporated herein by reference in its entirety. Similarly, hepatitis C replicon EC50 may be determined using known assay methods such as described in U.S. Patent Application Publication Number 2007/0054842 paragraph numbers 1510-1515. Assays may be conducted at ambient temperature (23° C.) in assay buffer containing 50 mM Tris-HCl, pH 7.5, 15% glycerol, 0.6 mM Lauryldimethylamine Oxide (LDAO), 25 μM NS4A peptide, and 10 mM Dithiothreitol (DTT).

SMILES	EC50 (hepatitis C replicon)	IC50 (NS3/NS4 complexes)
O=C1N[C@]2(C(=O)O)C[C@H]2/C=C\CCCCC[C@H](Nc2ccc(-c3ccccc3)cc2)C(=O)N2C[C@H](Oc3nc4ccccc4s3)C[C@@H]12 [Compound 325]	> 500 nM	75 to 500 nM
CC1(S(=O)(=O)NC(=O)[C@@]23C[C@H]2/C=C\CCCCC[C@H](Nc2ccc(-c4ccccc4)cc2)C(=O)N2C[C@H](Oc4nc5ccccc5s4)C[C@H]2C(=O)N3)CC1 [Compound 326]	> 500 nM	< 10 nM
CC1(S(=O)(=O)NC(=O)[C@@]23C[C@H]2/C=C\CCCCC[C@H](Nc2cc(F)cc(F)c2)C(=O)N2C[C@H](Oc4nc5ccccc5s4)C[C@H]2C(=O)N3)CC1 [Compound 328]	10 to 75 nM	< 10 nM
CC1(S(=O)(=O)NC(=O)[C@@]23C[C@H]2/C=C\CCCCC[C@H](Nc2ccc(C(F)(F)F)cc2)C(=O)N2C[C@H](Oc4nc5ccccc5s4)C[C@H]2C(=O)N3)CC1 [Compound 330]	75 to 500 nM	< 10 nM
O=C1N[C@]2(C(=O)O)C[C@H]2/C=C\CCCCC[C@H](Nc2ccc(Cl)cc2)C(=O)N2C[C@H](Oc3nc4ccccc4s3)C[C@@H]12 [Compound 331]	> 500 nM	75 to 500 nM
CC1(S(=O)(=O)NC(=O)[C@@]23C[C@H]2/C=C\CCCCC[C@H](Nc2ccc(Cl)cc2)C(=O)N2C[C@H](Oc4nc5ccccc5s4)C[C@H]2C(=O)N3)CC1 [Compound 332]	75 to 500 nM	< 10 nM
O=C1N[C@]2(C(=O)O)C[C@H]2/C=C\CCCCC[C@H](Nc2ccc(Cl)c(Cl)c2)C(=O)N2C[C@H](Oc3nc4ccccc4s3)C[C@@H]12 [Compound 333]	> 500 nM	75 to 500 nM
CC1(S(=O)(=O)NC(=O)[C@@]23C[C@H]2/C=C\CCCCC[C@H](Nc2ccc(Cl)c(Cl)c2)C(=O)N2C[C@H](Oc4nc5ccccc5s4)C[C@H]2C(=O)N3)CC1 [Compound 334]	75 to 500 nM	< 10 nM
O=C1N[C@]2(C(=O)O)C[C@H]2/C=C\CCCCC[C@H](Nc2cccc(Cl)c2)C(=O)N2C[C@H](Oc3nc4ccccc4s3)C[C@@H]12 [Compound 335]	> 500 nM	10 to 75 nM
CC1(S(=O)(=O)NC(=O)[C@@]23C[C@H]2/C=C\CCCCC[C@H](Nc2cc(C(F)(F)F)cc(C(F)(F)F)c2)C(=O)N2C[C@H](Oc4nc5ccccc5s4)C[C@H]2C(=O)N3)CC1 [Compound 336]	75 to 500 nM	< 10 nM
CC1(S(=O)(=O)NC(=O)[C@@]23C[C@H]2/C=C\CCCCC[C@H](Nc2cccc(Cl)c2)C(=O)N2C[C@H](Oc4nc5ccccc5s4)C[C@H]2C(=O)N3)CC1 [Compound 337]	75 to 500 nM	< 10 nM
O=C1N[C@]2(C(=O)O)C[C@H]2/C=C\CCCCC[C@H](Nc2cc(C(F)(F)F)cc(C(F)(F)F)c2)C(=O)N2C[C@H](Oc3nc4ccccc4s3)C[C@@H]12 [Compound 338]	> 500 nM	75 to 500 nM
CC1(S(=O)(=O)NC(=O)[C@@]23C[C@H]2/C=C\CCCCC[C@H](Nc2ccccc2F)C(=O)N2C[C@H](Oc4nc5ccccc5s4)C[C@H]2C(=O)N3)CC1 [Compound 339]	75 to 500 nM	< 10 nM
CC1(S(=O)(=O)NC(=O)[C@@]23C[C@H]2/C=C\CCCCC[C@H](Nc2cc(Cl)cc(Cl)c2)C(=O)N2C[C@H](Oc4nc5ccccc5s4)C[C@H]2C(=O)N3)CC1 [Compound 340]	10 to 75 nM	< 10 nM
CC1(S(=O)(=O)NC(=O)[C@@]23C[C@H]2/C=C\CCCCC[C@H](Nc2ccc(F)c(F)c2)C(=O)N2C[C@H](Oc4nc5ccccc5s4)C[C@H]2C(=O)N3)CC1 [Compound 341]	10 to 75 nM	< 10 nM
CC1(S(=O)(=O)NC(=O)[C@@]23C[C@H]2/C=C\CCCCC[C@H](Nc2ccc4ccccc4c2)C(=O)N2C[C@H](Oc4nc5ccccc5s4)C[C@H]2C(=O)N3)CC1 [Compound 342]	75 to 500 nM	< 10 nM
CC1(S(=O)(=O)NC(=O)[C@@]23C[C@H]2/C=C\CCCCC[C@H](Nc2cc(F)cc(C(F)(F)F)c2)C(=O)N2C[C@H](Oc4nc5ccccc5s4)C[C@H]2C(=O)N3)CC1 [Compound 345]	10 to 75 nM	< 10 nM
CC1(S(=O)(=O)NC(=O)[C@@]23C[C@H]2/C=C\CCCCC[C@H](Nc2cc(F)cc(C(F)(F)F)c2)C(=O)N2C[C@H](Oc4nccc5ccccc45)C[C@H]2C(=O)N3)CC1 [Compound 346]	< 10 nM	< 10 nM
CC1(S(=O)(=O)NC(=O)[C@@]23C[C@H]2/C=C\CCCCC[C@H](Nc2ccc(F)c(C(F)(F)F)c2)C(=O)N2C[C@H](Oc4nccc5ccccc45)C[C@H]2C(=O)N3)CC1 [Compound 347]	< 10 nM	< 10 nM

SMILES	EC50 (hepatitis C replicon)	IC50 (NS3/NS4 complexes)
O=C1N[C@]2(C(=O)NS(=O)(=O)C3CC3)C[C@H]2/C=C\CCCCC[C@H](Nc2ccc(F)cc2)C(=O)N2C[C@H](Oc3nc4ccccc4s3)C[C@@H]12 [Compound 348]	75 to 500 nM	< 10 nM
CC1(S(=O)(=O)NC(=O)[C@@]23C[C@H]2/C=C\CCCCC[C@H](Nc2ccc(F)cc2)C(=O)N2C[C@H](Oc4nc5ccccc5s4)C[C@H]2C(=O)N3)CC1 [Compound 349]	10 to 75 nM	< 10 nM
Cc1ccc2nc(O[C@@H]3C[C@H]4C(=O)N[C@]5(C(=O)NS(=O)(=O)C6(C)CC6)C[C@H]5/C=C\CCCCC[C@H](Nc5cc(F)cc(C(F)(F)F)c5)C(=O)N4C3)sc2c1 [Compound 350]	75 to 500 nM	< 10 nM
CC1(S(=O)(=O)NC(=O)[C@@]23C[C@H]2/C=C\CCCCC[C@H](Nc2cc(F)cc(C(F)(F)F)c2)C(=O)N2C[C@H](Oc4nc5ccc(Cl)cc5s4)C[C@H]2C(=O)N3)CC1 [Compound 351]	75 to 500 nM	< 10 nM
CC1(S(=O)(=O)NC(=O)[C@@]23C[C@H]2/C=C\CCCCC[C@H](Nc2cc(F)cc(C(F)(F)F)c2)C(=O)N2C[C@H](Oc4nc5ccc(Br)cc5s4)C[C@H]2C(=O)N3)CC1 [Compound 352]	10 to 75 nM	< 10 nM
CC1(S(=O)(=O)NC(=O)[C@@]23C[C@H]2/C=C\CCCCC[C@H](Nc2cc(F)cc(C(F)(F)F)c2)C(=O)N2C[C@H](Oc4nc5ccccc5o4)C[C@H]2C(=O)N3)CC1 [Compound 353]	75 to 500 nM	< 10 nM
COc1ccc2c(O[C@@H]3C[C@H]4C(=O)N[C@]5(C(=O)O)C[C@H]5/C=C\CCCCC[C@H](Nc5cc(F)cc(C(F)(F)F)c5)C(=O)N4C3)cc(-c3ccccc3)nc2c1 [Compound 354]	75 to 500 nM	< 10 nM
COc1ccc2c(O[C@@H]3C[C@H]4C(=O)N[C@]5(C(=O)NS(=O)(=O)C6(C)CC6)C[C@H]5/C=C\CCCCC[C@H](Nc5cc(F)cc(C(F)(F)F)c5)C(=O)N4C3)cc(-c3ccccc3)nc2c1 [Compound 355]	< 10 nM	< 10 nM
COc1ccc2c(O[C@@H]3C[C@H]4C(=O)N[C@]5(C(=O)NS(=O)(=O)C6CC6)C[C@H]5/C=C\CCCCC[C@H](Nc5ccc(F)c(C(F)(F)F)c5)C(=O)N4C3)cc(-c3ccccc3)nc2c1 [Compound 356]	< 10 nM	< 10 nM
COc1ccc2c(O[C@@H]3C[C@H]4C(=O)N[C@]5(C(=O)NS(=O)(=O)C6(C)CC6)C[C@H]5/C=C\CCCCC[C@H](Nc5cc(F)cc(C(F)(F)F)c5)C(=O)N4C3)cc(-c3nc(C(C)C)cs3)nc2c1C [Compound 358]	10 to 75 nM	< 10 nM
COc1ccc2c(O[C@@H]3C[C@H]4C(=O)N[C@]5(C(=O)NS(=O)(=O)C6(C)CC6)C[C@H]5/C=C\CCCCC[C@H](Nc5ccccc5)C(=O)N4C3)cc(-c3nc(C(C)C)cs3)nc2c1C [Compound 359]	< 10 nM	< 10 nM
COc1ccc2c(O[C@@H]3C[C@H]4C(=O)N[C@]5(C(=O)NS(=O)(=O)C6(C)CC6)C[C@H]5/C=C\CCCCC[C@H](Nc5cccc(C(F)(F)F)c5)C(=O)N4C3)cc(-c3nc(C(C)C)cs3)nc2c1C [Compound 360]	< 10 nM	< 10 nM
COc1ccc2c(O[C@@H]3C[C@H]4C(=O)N[C@]5(C(=O)NS(=O)(=O)C6(C)CC6)C[C@H]5/C=C\CCCCC[C@H](Nc5cccc(F)c5)C(=O)N4C3)cc(-c3nc(C(C)C)cs3)nc2c1C [Compound 361]	< 10 nM	< 10 nM
COc1ccc2c(O[C@@H]3C[C@H]4C(=O)N[C@]5(C(=O)NS(=O)(=O)C6(C)CC6)C[C@H]5/C=C\CCCCC[C@H](Nc5ccc(F)cc5)C(=O)N4C3)cc(-c3nc(C(C)C)cs3)nc2c1C [Compound 362]	< 10 nM	< 10 nM
COc1ccc2c(O[C@@H]3C[C@H]4C(=O)N[C@]5(C(=O)NS(=O)(=O)C6(C)CC6)C[C@H]5/C=C\CCCCC[C@H](Nc5cc(F)cc(F)c5)C(=O)N4C3)cc(-c3nc(C(C)C)cs3)nc2c1C [Compound 363]	10 to 75 nM	< 10 nM
CC(C)n1c(O[C@@H]2C[C@H]3C(=O)N[C@]4(C(=O)NS(=O)(=O)C5(C)CC5)C[C@H]4/C=C\CCCCC[C@H](Nc4ccccc4)C(=O)N3C2)nc2ccccc21 [Compound 365]	< 10 nM	< 10 nM
COc1ccc2c(O[C@@H]3C[C@H]4C(=O)N[C@]5(C(=O)NS(=O)(=O)C6CC6)C[C@H]5/C=C\CCCCC[C@H](Nc5cccc(C(F)(F)F)c5)C(=O)N4C3)cc(-c3nc(C(C)C)cs3)nc2c1C [Compound 369]	< 10 nM	< 10 nM
COc1ccc2c(O[C@@H]3C[C@H]4C(=O)N[C@]5(C(=O)NS(=O)(=O)C6(C)CC6)C[C@H]5/C=C\CCCCC[C@H](Nc5ccc(F)c(C(F)(F)F)c5)C(=O)N4C3)cc(-c3nc(C(C)C)cs3)nc2c1C [Compound 374]	< 10 nM	< 10 nM
O=C1N[C@]2(C(=O)NS(=O)(=O)C3CC3)C[C@H]2/C=C\CCCCC[C@H](Nc2ccc(F)c(C(F)(F)F)c2)C(=O)N2C[C@H](Oc3nccc4ccccc34)C[C@@H]12 [Compound 375]	< 10 nM	< 10 nM
